This passage reports inhibition, IC50 and Activity results from ChEMBL document CHEMBL1147828, “Discovery of indole-containing tetracycles as a new scaffold for androgen receptor ligands” (Bioorg Med Chem Lett, 2006).

Activity calls are given as the source filed them. The calls are words filed in the database; no cut-off is given here.

One experiment deals with T1, Androgen receptor (Rattus norvegicus) (UniProt P15207).
T1 sequence (whole entry): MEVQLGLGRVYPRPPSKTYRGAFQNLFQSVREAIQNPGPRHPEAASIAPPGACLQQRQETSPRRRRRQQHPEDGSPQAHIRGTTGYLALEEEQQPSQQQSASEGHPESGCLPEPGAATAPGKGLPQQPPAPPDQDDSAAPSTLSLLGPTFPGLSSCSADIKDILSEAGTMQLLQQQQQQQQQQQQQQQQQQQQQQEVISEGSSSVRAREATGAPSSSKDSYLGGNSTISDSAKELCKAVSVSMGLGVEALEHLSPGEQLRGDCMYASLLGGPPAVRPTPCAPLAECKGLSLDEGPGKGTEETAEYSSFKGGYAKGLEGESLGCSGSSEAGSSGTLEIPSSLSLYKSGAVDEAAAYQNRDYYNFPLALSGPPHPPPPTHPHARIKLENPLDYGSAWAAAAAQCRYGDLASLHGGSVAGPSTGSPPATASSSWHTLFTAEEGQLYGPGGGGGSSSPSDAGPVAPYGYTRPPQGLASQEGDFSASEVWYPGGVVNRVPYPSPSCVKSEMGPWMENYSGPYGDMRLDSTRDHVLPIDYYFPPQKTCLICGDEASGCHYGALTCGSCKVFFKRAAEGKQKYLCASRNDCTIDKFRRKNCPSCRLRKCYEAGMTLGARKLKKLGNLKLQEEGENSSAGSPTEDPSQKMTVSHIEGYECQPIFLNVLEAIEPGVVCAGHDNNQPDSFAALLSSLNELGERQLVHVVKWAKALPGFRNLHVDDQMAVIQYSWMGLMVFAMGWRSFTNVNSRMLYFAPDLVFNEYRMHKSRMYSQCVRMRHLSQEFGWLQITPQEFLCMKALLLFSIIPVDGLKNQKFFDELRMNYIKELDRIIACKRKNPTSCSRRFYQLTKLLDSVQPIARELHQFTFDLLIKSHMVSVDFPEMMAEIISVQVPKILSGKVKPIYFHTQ
As to the kind of experiment: Inhibition of rat AR-mediated reporter gene expression in COS7 cells at 10 uM. In kind it is cell-based. To be noted: COS-7. On the technique in general: Reporter assays use an easily measured gene product as a stand-in for the process of interest.
Consider `Cn1c2c(c3cc(F)ccc31)CSc1cc(F)ccc1-2`, for which the inhibition was found to be 48%.

In a further experiment the target is T1, Androgen receptor (Rattus norvegicus). The experiment in a line: Inhibition of rat AR-mediated reporter gene expression in COS7 cells at 3 uM. In kind it is cell-based. To be noted: COS-7.
Turning to `Cn1c2c(c3ccc(O)cc31)CCc1ncccc1-2`, the inhibition was 29%.

For the compound `Cn1c2c(c3cc(O)ccc31)CCC1=CC(=O)CCC12C` (configuration not stated), the inhibition is 42%.

As for `Cn1c2c(c3cc(O)ccc31)CCc1nccnc1-2`, the inhibition was 33%.

The target in the next experiment is T2, Androgen receptor (Rattus norvegicus, UniProt P15207).
T2 sequence (P15207 whole entry): T1 sequence (whole entry)
Assay: not given
Details: not given
In turn, `Cn1c2c(c3cc(O)ccc31)CSc1ccccc1-2` showed an IC50 of 110 nM.

`Cn1c2c(c3cccc(O)c31)CSc1cc(F)ccc1-2` returned an IC50 of 3800 nM. This IC50 lies about 35-fold higher than the previous one.

`Cn1c2c(c3cc(F)ccc31)CSc1cc(C(F)(F)F)ccc1-2` showed an IC50 of 2800 nM.

On to `Cn1c2c(c3ccc(O)cc31)C(C)(C)Sc1cc(O)ccc1-2`, for which 3400 nM corresponded to half-maximal inhibition (IC50).

Compound `Cn1c2c(c3cc(Cl)ccc31)CSc1ccccc1-2` returned an IC50 of 1500 nM.

On to `Cn1c2c(c3cc(O)ccc31)CSc1ccc(F)cc1-2`, for which the IC50 came to 110 nM.

`Cn1c2c(c3cc(O)ccc31)CCc1sccc1-2` had an IC50 of 580 nM.

On to `Cn1c2c(c3ccc(O)cc31)CCSc1ccccc1-2`, for which the IC50 turned out to be 5000 nM.

As to `Cn1c2c(c3ccc(O)cc31)CCc1ccccc1-2`, half-maximal inhibition (IC50) was put at 30 nM.

In turn, `Cn1c2c(c3cc(O)ccc31)CCc1cnccc1-2` registered an IC50 of 930 nM.

Take `Cn1c2c(c3ccc(O)cc31)CSc1ccccc1-2`: the IC50 was found to be 130 nM.

Turning to `Cn1c2c(c3ccc(O)cc31)CCCc1ccccc1-2`, half-maximal inhibition (IC50) was put at 920 nM.

`Cn1c2c(c3cc(O)ccc31)CCc1ncccc1-2` displayed an IC50 of 29 nM.

Turning to `Cn1c2c(c3cc(O)ccc31)CSc1cc(O)ccc1-2`, the IC50 was determined as 2100 nM.

Turning to `Cn1c2c(c3cc(O)ccc31)CSc1cc(Br)ccc1-2`, the IC50 turned out to be 2800 nM.

`CCn1c2c(c3cc(O)ccc31)CSc1ccccc1-2` gave an IC50 of 2300 nM.

Regarding `Oc1ccc2[nH]c3c(c2c1)CSc1ccccc1-3`, the IC50 turned out to be 4500 nM.

`CC(=O)n1c2c(c3cc(O)ccc31)CSc1ccccc1-2` came in with an IC50 of 1000 nM.

For the compound `Cn1c2c(c3cc(F)ccc31)CSc1ccccc1-2`, it took 3700 nM to reach half-maximal inhibition (IC50). Against the preceding compound, the IC50 is about 3.7-fold higher.

In the case of `Cn1c2c(c3cc(O)ccc31)CSc1ncccc1-2`, the IC50 was 52 nM.

`COc1ccc2c(c1)SCc1c-2n(C)c2ccc(O)cc12` displayed an IC50 of 3000 nM.

`Cn1ccc2c1CCc1c-2n(C)c2ccc(O)cc12` displayed an IC50 of 370 nM.

Consider `CC(=O)Oc1ccc2c(c1)c1c(n2C)-c2ccccc2SC1`, for which 880 nM corresponded to half-maximal inhibition (IC50).

The compound `Cn1c2c(c3cc(O)ccc31)CSc1cc(F)ccc1-2` showed an IC50 of 630 nM.

A further experiment deals with T1, Androgen receptor (Rattus norvegicus). As to the kind of experiment: Inhibition of rat AR-mediated reporter gene expression in COS7 cells. To be noted: COS-7.
Regarding `COc1ccc2c(c1)c1c(n2C)-c2ccccc2SC1`, the outcome was inactive.

Take `CN1c2ccc(O)cc2C(=O)C2CCc3ccccc3C21` (configuration not stated): the outcome was inactive.

Turning to `CN1C(=O)CCC2(C)c3c(c4cc(O)ccc4n3C)CCC12` (configuration not stated), the result was inactive.

Take `Oc1ccc2nc3c(c(O)c2c1)CCc1ccccc1-3`: the result was inactive.

For `CN1Cc2c(n(C)c3cc(O)ccc23)-c2ccccc21`, the outcome was inactive.

As to `CN(C)CCn1c2c(c3cc(O)ccc31)CSc1ccccc1-2`, the result was inactive.

As to `Cc1ccc2c(c1)c1c(n2C)-c2ccccc2SC1`, the outcome was inactive.

In the case of `Cn1c2c(c3cc(O)ccc31)CS(=O)(=O)c1ccccc1-2`, the outcome was inactive.

Take `Cn1c2c(c3cc(C#N)ccc31)CSc1ccccc1-2`: the outcome was inactive.

For the compound `Cn1c2c(c3ccc(O)cc31)CCC1=CC(=O)CCC12C` (configuration not stated), the outcome was inactive.

Take `Cn1c2c(c3cc(O)ccc31)C[S+]([O-])c1ccccc1-2` (configuration not stated): the outcome was inactive.

For `Cn1c2c(c3cc(Br)ccc31)CSc1ccccc1-2`, the result was inactive.

In the case of `Cn1c2c(c3ccc(O)cc31)SCc1ccccc1-2`, the outcome was inactive.

As for `Cn1c2c(c3ccccc31)CSc1ccccc1-2`, the result was inactive.

What is called inhibition is the change of the read-out against control, counted positive when it falls. The term IC50 denotes the concentration that gives 50% inhibition. Low readings indicate higher potency, high ones lower potency.
